Data on 14 compounds can be found in patent publication US8927500B2, “Peptidomimetic macrocycles” (Aileron Therapeutics, Inc., priority 2012, dated 2015).

pKi: −log10 of the molar value. Like-named read-outs stand apart in the source and are kept apart here. Where a SMILES comes first, the peptide text is derived from it. Bridges are numbered along the chain shown (N, C = ends). [ ]: non-standard residue; d: D form. The star is where a group is joined. 5TAMRA = CN(C)c1ccc2c(c1)Oc1cc(N(C)C)ccc1C21OC(=O)c2cc(C(=O)*)ccc21; Phe(4-guanidino) = N=C(N)Nc1ccc(C[C@H](N)C(=O)O)cc1; pY = N[C@@H](Cc1ccc(OP(=O)(O)O)cc1)C(=O)O; Gla = N[C@@H](CC(C(=O)O)C(=O)O)C(=O)O; Benzoyl(4-F) = O=C(c1ccc(F)cc1)*; R8 = C=CCCCCCC[C@@](C)(N)C(=O)O; Cit = NC(=O)NCCC[C@H](N)C(=O)O; Cba = N[C@@H](CC1CCC1)C(=O)O; S5 = C=CCCC[C@](C)(N)C(=O)O; Aib = CC(C)(N)C(=O)O; βAla = NCCC(=O)O A value given as a limit tells only on which side of the number the result lay.

Experiment [1] concerns the target MDM2 (Homo sapiens, UniProt Q00987). Nature of the experiment: Competitive fluorescence polarization assay for MDM2. In kind it is binding. The note with it: competitive FP assay, MDM2.
The target of experiment [2] is T1, MDMX (Homo sapiens, UniProt O15151).
T1 sequence (O15151 1-125): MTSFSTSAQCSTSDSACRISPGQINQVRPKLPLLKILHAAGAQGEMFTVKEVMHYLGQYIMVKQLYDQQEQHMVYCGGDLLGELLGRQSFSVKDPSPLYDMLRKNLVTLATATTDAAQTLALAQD
Nature of the experiment: Competitive fluorescence polarization assay for MDMX. The experiment is classed as binding. The note with it: competitive FP assay.

Chain of MDM2 (Q00987 1-125): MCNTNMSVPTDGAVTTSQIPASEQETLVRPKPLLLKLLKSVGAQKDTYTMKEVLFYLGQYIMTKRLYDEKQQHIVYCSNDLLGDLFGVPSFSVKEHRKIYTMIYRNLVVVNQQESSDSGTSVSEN

Broadly, the pKi is the negative decadic logarithm of the Ki, by convention in mol/L. With `CC(=O)N[C@@H](CC(C)C)C(=O)N[C@H](C(=O)N[C@@H](Cc1ccccc1)C(=O)N[C@]1(C)CCCCCCC=CCCC[C@@](C)(C(=O)N[C@@H](CO)C(=O)O)NC(=O)[C@H](CC2CCC2)NC(=O)[C@H](CCC(N)=O)NC(=O)[C@H](C)NC(=O)[C@H](Cc2c[nH]c3ccccc23)NC(=O)[C@H](Cc2ccc(O)cc2)NC(=O)[C@H](CCC(=O)O)NC1=O)[C@@H](C)O` [compound 594] (Ac-LTF[R8]EYWAQ[Cba][S5]S-OH; staple 4-11), the pKi in experiment [1] (read-out: Ki (MDM2)) and in experiment [2] (read-out: Ki (MDMX)) was more than 8.00 in each case.

With `CC(C)C[C@H](NC(=O)c1ccc(F)cc1)C(=O)N[C@H](C(=O)N[C@@H](Cc1ccccc1)C(=O)N[C@]1(C)CCCCCCC=CCCC[C@@](C)(C(=O)N[C@@H](C)C(=O)N[C@@H](C)C(=O)N[C@@H](C)C(=O)N[C@@H](C)C(=O)N[C@@H](C)C(=O)N[C@H](C)C(N)=O)NC(=O)[C@H](CC(C)C)NC(=O)[C@H](CCC(N)=O)NC(=O)[C@H](C)NC(=O)[C@H](Cc2c[nH]c3ccccc23)NC(=O)[C@H](Cc2ccc(O)cc2)NC(=O)[C@H](CCC(=O)O)NC1=O)[C@@H](C)O` [compound 596] ({Benzoyl(4-F)}-LTF[R8]EYWAQL[S5]AAAAA[dA]-NH2; staple 4-11), the pKi in experiment [1] (Ki (MDM2)) was more than 8.00; in experiment [2] (Ki (MDMX)) it was 7.00 to 8.00.

Consider `CC(=O)N[C@@H](CC(C)C)C(=O)N[C@H](C(=O)N[C@@H](Cc1ccccc1)C(=O)N[C@]1(C)CCCCCCC=CCCC[C@@](C)(C(=O)N[C@@H](C)C(=O)N[C@@H](C)C(=O)N[C@@H](C)C(=O)N[C@@H](C)C(=O)N[C@@H](C)C(=O)N[C@H](C)C(N)=O)NC(=O)[C@H](CC(C)C)NC(=O)[C@H](CCC(N)=O)NC(=O)[C@H](C)NC(=O)[C@H](Cc2c[nH]c3ccccc23)NC(=O)[C@H](Cc2ccc(O)cc2)NC(=O)[C@H](CCCNC(=N)N)NC1=O)[C@@H](C)O` [compound 598] (Ac-LTF[R8]RYWAQL[S5]AAAAA[dA]-NH2; staple 4-11), for which the pKi in experiment [1] (Ki (MDM2)) is more than 8.00; in experiment [2] (Ki (MDMX)) it was 7.00 to 8.00.

In the case of `CC(=O)N[C@@H](CC(C)C)C(=O)N[C@H](C(=O)N[C@@H](Cc1ccccc1)C(=O)N[C@]1(C)CCCCCCC=CCCC[C@@](C)(C(=O)N[C@@H](C)C(=O)N[C@@H](C)C(=O)N[C@@H](C)C(=O)N[C@@H](C)C(=O)N[C@@H](C)C(=O)N[C@H](C)C(N)=O)NC(=O)[C@H](CC(C)C)NC(=O)[C@H](CCC(N)=O)NC(=O)[C@H](C)NC(=O)[C@H](Cc2c[nH]c3ccccc23)NC(=O)[C@H](Cc2ccc(O)cc2)NC(=O)[C@H](CCC(N)=O)NC1=O)[C@@H](C)O` [compound 600] (Ac-LTF[R8]QYWAQL[S5]AAAAA[dA]-NH2; staple 4-11), the negative logarithm of the Ki (pKi) in experiment [1] (Ki (MDM2)) and in experiment [2] (Ki (MDMX)) was more than 8.00 each time.

Take `CC(=O)N[C@@H](CC(C)C)C(=O)N[C@H](C(=O)N[C@@H](Cc1ccccc1)C(=O)N[C@]1(C)CCCCCCC=CCCC[C@@](C)(C(=O)N[C@@H](C)C(=O)N[C@@H](C)C(=O)N[C@@H](C)C(=O)N[C@@H](C)C(=O)N[C@@H](C)C(=O)N[C@H](C)C(N)=O)NC(=O)[C@H](CC(C)C)NC(=O)[C@H](CCC(N)=O)NC(=O)[C@H](C)NC(=O)[C@H](Cc2c[nH]c3ccccc23)NC(=O)[C@H](Cc2ccc(O)cc2)NC(=O)[C@H](CC(C(=O)O)C(=O)O)NC1=O)[C@@H](C)O` [compound 602] (Ac-LTF[R8][Gla]YWAQL[S5]AAAAA[dA]-NH2; staple 4-11): the pKi in experiment [1] (Ki (MDM2)) and in experiment [2] (Ki (MDMX)) was more than 8.00 each time.

In the case of `CC(=O)N[C@@H](CC(C)C)C(=O)N[C@H](C(=O)N[C@@H](Cc1ccccc1)C(=O)N[C@]1(C)CCCCCCC=CCCC[C@@](C)(C(=O)N[C@@H](C)C(=O)N[C@@H](C)C(=O)N[C@@H](C)C(=O)N[C@@H](C)C(=O)N[C@@H](C)C(=O)N[C@H](C)C(N)=O)NC(=O)[C@H](CC(C)C)NC(=O)[C@H](CCC(N)=O)NC(=O)[C@H](C)NC(=O)[C@H](Cc2c[nH]c3ccccc23)NC(=O)[C@H](Cc2ccc(O)cc2)NC(=O)[C@H](Cc2ccc(NC(=N)N)cc2)NC1=O)[C@@H](C)O` [compound 603] (Ac-LTF[R8][Phe(4-guanidino)]YWAQL[S5]AAAAA[dA]-NH2; staple 4-11), the pKi in experiment [1] (Ki (MDM2)) and in experiment [2] (Ki (MDMX)) was more than 8.00 throughout.

For `CC(=O)N[C@@H](CC(C)C)C(=O)N[C@H](C(=O)N[C@@H](Cc1ccccc1)C(=O)N[C@]1(C)CCCCCCC=CCCC[C@@](C)(C(=O)N[C@@H](C)C(=O)N[C@@H](C)C(=O)N[C@@H](C)C(=O)N[C@@H](C)C(=O)N[C@@H](C)C(=O)N[C@H](C)C(N)=O)NC(=O)[C@H](CC(C)C)NC(=O)[C@H](CC(C)C)NC(=O)[C@H](C)NC(=O)[C@H](Cc2c[nH]c3ccccc23)NC(=O)[C@H](Cc2ccc(O)cc2)NC(=O)[C@H](CCC(=O)O)NC1=O)[C@@H](C)O` [compound 608] (Ac-LTF[R8]EYWALL[S5]AAAAA[dA]-NH2; staple 4-11), the pKi was more than 8.00 in experiment [1] (read-out: Ki (MDM2)) and 7.00 to 8.00 in experiment [2] (read-out: Ki (MDMX)).

With `CC(=O)N[C@@H](CC(C)C)C(=O)N[C@H](C(=O)N[C@@H](Cc1ccccc1)C(=O)N[C@]1(C)CCCCCCC=CCCC[C@@](C)(C(=O)N[C@@H](C)C(=O)N[C@@H](C)C(=O)N[C@@H](C)C(=O)N[C@@H](C)C(=O)N[C@@H](C)C(=O)N[C@H](C)C(N)=O)NC(=O)[C@H](CC(C)C)NC(=O)C(C)(C)NC(=O)[C@H](C)NC(=O)[C@H](Cc2c[nH]c3ccccc23)NC(=O)[C@H](Cc2ccc(O)cc2)NC(=O)[C@H](CCC(=O)O)NC1=O)[C@@H](C)O` [compound 609] (Ac-LTF[R8]EYWA[Aib]L[S5]AAAAA[dA]-NH2; staple 4-11), the results for the pKi in experiment [1] (read-out: Ki (MDM2)) and in experiment [2] (read-out: Ki (MDMX)) were more than 8.00 and 7.00 to 8.00, respectively.

As for `CC(=O)N[C@@H](CC(C)C)C(=O)N[C@H](C(=O)N[C@@H](Cc1ccccc1)C(=O)N[C@]1(C)CCCCCCC=CCCC[C@@](C)(C(=O)N[C@@H](C)C(=O)N[C@@H](C)C(=O)N[C@@H](C)C(=O)N[C@@H](C)C(=O)N[C@@H](C)C(=O)N[C@H](C)C(N)=O)NC(=O)[C@H](CC(C)C)NC(=O)[C@H](CO)NC(=O)[C@H](C)NC(=O)[C@H](Cc2c[nH]c3ccccc23)NC(=O)[C@H](Cc2ccc(O)cc2)NC(=O)[C@H](CCC(=O)O)NC1=O)[C@@H](C)O` [compound 610] (Ac-LTF[R8]EYWASL[S5]AAAAA[dA]-NH2; staple 4-11), the pKi in experiment [1] (read-out: Ki (MDM2)) was more than 8.00; in experiment [2] (read-out: Ki (MDMX)), 7.00 to 8.00.

Regarding `CC(=O)N[C@@H](CC(C)C)C(=O)N[C@H](C(=O)N[C@@H](Cc1ccccc1)C(=O)N[C@]1(C)CCCCCCC=CCCC[C@@](C)(C(=O)N[C@@H](C)C(=O)N[C@@H](C)C(=O)N[C@@H](C)C(=O)N[C@@H](C)C(=O)N[C@@H](C)C(=O)N[C@H](C)C(N)=O)NC(=O)[C@H](CC(C)C)NC(=O)[C@H](CC(N)=O)NC(=O)[C@H](C)NC(=O)[C@H](Cc2c[nH]c3ccccc23)NC(=O)[C@H](Cc2ccc(O)cc2)NC(=O)[C@H](CCC(=O)O)NC1=O)[C@@H](C)O` [compound 611] (Ac-LTF[R8]EYWANL[S5]AAAAA[dA]-NH2; staple 4-11), the pKi was more than 8.00 in experiment [1] (read-out: Ki (MDM2)) and 7.00 to 8.00 in experiment [2] (read-out: Ki (MDMX)).

As to `CC(=O)N[C@@H](CC(C)C)C(=O)N[C@H](C(=O)N[C@@H](Cc1ccccc1)C(=O)N[C@]1(C)CCCCCCC=CCCC[C@@](C)(C(=O)N[C@@H](C)C(=O)N[C@@H](C)C(=O)N[C@@H](C)C(=O)N[C@@H](C)C(=O)N[C@@H](C)C(=O)N[C@H](C)C(N)=O)NC(=O)[C@H](CC(C)C)NC(=O)[C@H](CCCNC(N)=O)NC(=O)[C@H](C)NC(=O)[C@H](Cc2c[nH]c3ccccc23)NC(=O)[C@H](Cc2ccc(O)cc2)NC(=O)[C@H](CCC(=O)O)NC1=O)[C@@H](C)O` [compound 612] (Ac-LTF[R8]EYWA[Cit]L[S5]AAAAA[dA]-NH2; staple 4-11), the pKi in experiment [1] (read-out: Ki (MDM2)) was more than 8.00; in experiment [2] (read-out: Ki (MDMX)), 7.00 to 8.00.

`CC(=O)N[C@@H](CC(C)C)C(=O)N[C@H](C(=O)N[C@@H](Cc1ccccc1)C(=O)N[C@]1(C)CCCCCCC=CCCC[C@@](C)(C(=O)N[C@@H](C)C(=O)N[C@@H](C)C(=O)N[C@@H](C)C(=O)N[C@@H](C)C(=O)N[C@@H](C)C(=O)N[C@H](C)C(N)=O)NC(=O)[C@H](CC(C)C)NC(=O)[C@H](Cc2c[nH]cn2)NC(=O)[C@H](C)NC(=O)[C@H](Cc2c[nH]c3ccccc23)NC(=O)[C@H](Cc2ccc(O)cc2)NC(=O)[C@H](CCC(=O)O)NC1=O)[C@@H](C)O` [compound 613] (Ac-LTF[R8]EYWAHL[S5]AAAAA[dA]-NH2; staple 4-11): the results for the negative logarithm of the Ki (pKi) in experiment [1] (read-out: Ki (MDM2)) and in experiment [2] (read-out: Ki (MDMX)) were more than 8.00 and 7.00 to 8.00, respectively.

Regarding `CC(=O)N[C@@H](CC(C)C)C(=O)N[C@H](C(=O)N[C@@H](Cc1ccccc1)C(=O)N[C@]1(C)CCCCCCC=CCCC[C@@](C)(C(=O)N[C@@H](C)C(=O)N[C@@H](C)C(=O)N[C@@H](C)C(=O)N[C@@H](C)C(=O)N[C@@H](C)C(=O)N[C@H](C)C(N)=O)NC(=O)[C@H](CC(C)C)NC(=O)[C@H](CCC(N)=O)NC(=O)[C@H](C)NC(=O)[C@H](Cc2c[nH]c3ccccc23)NC(=O)[C@H](Cc2ccc(OP(=O)(O)O)cc2)NC(=O)[C@H](CCC(=O)O)NC1=O)[C@@H](C)O` [compound 615] (Ac-LTF[R8]E[pY]WAQL[S5]AAAAA[dA]-NH2; staple 4-11), the pKi in experiment [1] (Ki (MDM2)) and in experiment [2] (Ki (MDMX)) was more than 8.00 in each case.

Take `CC(C)C[C@H](NC(=O)CCNC(=O)c1ccc2c(c1)C(=O)OC21c2ccc(N(C)C)cc2Oc2cc(N(C)C)ccc21)C(=O)N[C@H](C(=O)N[C@@H](C)C(=O)N[C@]1(C)CCCCCCC=CCCC[C@@](C)(C(=O)N[C@@H](CO)C(=O)N[C@@H](C)C(=O)N[C@@H](C)C(N)=O)NC(=O)[C@H](CC2CCC2)NC(=O)[C@H](CCC(N)=O)NC(=O)[C@H](C)NC(=O)[C@H](Cc2c[nH]c3ccccc23)NC(=O)[C@H](Cc2ccc(O)cc2)NC(=O)[C@H](CCC(=O)O)NC1=O)[C@@H](C)O` [compound 687] ({5TAMRA-βAla}-LTA[R8]EYWAQ[Cba][S5]SAA-NH2; staple 4-11): the pKi in experiment [1] (read-out: Ki (MDM2)) and in experiment [2] (read-out: Ki (MDMX)) was 6.00 to 7.00 each time.
